One experiment has as its system rat. To be noted: rat model; cited from earlier work.
Experiment [1] deals with MCF7-Cispl-R cells. Description: SOX2 and OCT4 levels, MCF7-Cispl-R cells. The experiment is classed as cell-based, human. Conditions: MCF7-Cispl-R treated with GC4419; data not shown. On the procedure:
(§1) Aberrant HIF2α levels promote lineage plasticity, leading to chemoresistance and metastasis. […] Thus, MCF7 cells were selected for cisplatin resistance (Cispl-R) by 3 months of exposure to 5 μM Cispl.

The test system of experiment [2] is MCF7-Cispl-R cells. Put plainly: Cisplatin sensitivity, MCF7-Cispl-R cells. The class given is cell-based, human. Conditions: MCF7-Cispl-R treated with GC4419.
The next experiment relates to MCF7-HTR cells. Put plainly: Ki-67 staining, MCF7-HTR cells. The experiment is classed as cell-based, human. Conditions: 5 μM GC4419 and/or 1 μM 4-hydroxy-Tam for 5 days. An excerpt: With respect to FIG. 16a, the data from FIG. 7i, where MCF7-HTR cells were stained for Ki-67, as well as DAPI, were counted with ImageJ and quantified for average Ki-67 intensity as shown in the bar graph. With respect to FIGS. 16b and 16c, T47D and T47D-HTR cells were stained for Ki-67 as well as DAPI, and particles in the nucleus were counted with ImageJ and quantified for average Ki-67 intensity as shown in the bar graph. In FIGS. 16d and 16e, MCF7-HTR cells, and in FIGS. 16f and 16g, T47D-HTR cells, were treated with 5 μM GC4419 and/or 1 μM 4-hydroxy-Tam for 5 days, and then stained for Ki-67 as well as DAPI. Quantifications of average Ki-67 intensity are shown in the bar graphs. All experiments were done in triplicate. Error bars represent ±1 SEM. ***p<0.001. Representative images are shown.
Cells seeded on glass coverslips were fixed in 4% paraformaldehyde and then blocked with 1% BSA and 10% normal goat serum in 1×PBS. Cells were incubated with anti-Ki-67 (c-bioscience) antibody in 1×PBS followed by incubation with goat anti-rabbit IgG conjugated with Alexa Fluor 647 (Invitrogen) in 1×PBS with 5% goat serum. Cells were washed in 1×PBS, mounted, and imaged with a fluorescence microscope. Fluorescence images were captured using a laser scanning confocal microscope (Nikon A1R). The paired images in all the figures were collected at the same gain and offset settings. […]

For another experiment, the system named is MCF-7-MnSOD^K68Q cells. Description: Clonogenic cell survival after 5 Gy ionizing radiation, MCF-7-MnSOD^K68Q cells. The class given is cell-based, human. Conditions: 5 μM GC4419 for 5 days, then 5 Gy ionizing radiation. The procedure: FIGS. 30a-30b are plots showing that expression of MnSOD^K68Q induces ionizing radiation resistance (IRR) in MCF7 cells. […] All experiments were done in triplicate. Error bars represent±1 SEM. ***p<0.001. Data were analyzed by a t-test.
To determine if the MnSOD-K68-Ac-ROS axis plays a role in IRR, it was hypothesized that MnSOD acetylation might play a role in how tumor cells are reprogrammed to produce a IRR phenotype. To address this idea, an established tumor cell line MCF-7 was infected with lenti-MnSOD^K68Q to induce MnSOD^K68Q expression, which was validated. MCF-7-MnSOD^WT and MCF-7-MnSOD^K68Q cells were treated without or with 5 Gy of IR.

For experiment [3], the system named is MCF7-Cispl-R cells. Description: Cell ROS levels, MCF7-Cispl-R cells. The class given is cell-based, human. To be noted: GC4419 exposure; data not shown. On the procedure:
FIGS. 27a-27c are an image and graphs showing that MnSOD-Ac-K68/HIF2α dysregulation directs PanR (resistance to cancer therapeutics). […] In FIG. 27b, ROS was measured in MCF7-Cispl-R cells, compared with MCF7 cells, using an Amplex Red assay. In FIG. 27c, MCF7 and MCF7-MnSOD^K68Q cells were measured by clonogenic cell survival assays, without and with Cispl exposure, and infected with scrambled (C) or HIF2α shRNA. All experiments were done in triplicate. Error bars are ±1 SEM. * p<0.05.
as §1

The values that follow come from patent US20230149358A1, “COMBINATION CANCER THERAPY WITH PENTAAZA MACROCYCLIC RING COMPLEX AND HORMONE THERAPY AGENT” (Galera Labs, LLC, priority 2020, published 2023).

Turning to `[Cl][Mn][Cl].c1cc2nc(c1)CN[C@H]1CCCC[C@@H]1NCCN[C@H]1CCCC[C@@H]1NC2` [GC4419], in the experiment on rat, the “VEGFr inhibitor-induced pulmonary disease” value was “attenuate VEGFr inhibitor-induced pulmonary disease”. In the experiment on MCF7-Cispl-R cells [1], the “SOX2 and OCT4 levels” value was “decreased SOX2 and OCT4 levels”. Moreover, the cisplatin resistance phenotype entry in the experiment on MCF7-Cispl-R cells [2] is “converted the Cispl-R cells to a sensitive phenotype”. In addition, the Ki-67 staining entry in the experiment on MCF7-HTR cells is “exhibited decreased Ki-67 IHC staining”. In addition, in the experiment on MCF-7-MnSOD^K68Q cells, the “ionizing radiation resistance (IRR) phenotype, clonogenic cell survival” value is “reversed the IRR phenotype”. In addition, the “cell ROS levels” value in the experiment with MCF7-Cispl-R cells [3] is “decreased cell ROS levels”.
